Measured values as given in ChEMBL document CHEMBL4725442, “Exception That Proves the Rule: Investigation of Privileged Stereochemistry in Designing Dopamine DR Bitopic Agonists” (ACS Med Chem Lett, 2020).

Legend:
Type in all cases: cell-based
D(1A) dopamine receptor [1] = target: T1, D(1A) dopamine receptor (Homo sapiens, UniProt P21728); assay: Displacement of [3H]-SCH23390 from human D1 receptor expressed in HEK293 cells at 100 uM after 60 mins by microbeta counting based assay relative to control
T1 sequence (P21728 whole entry): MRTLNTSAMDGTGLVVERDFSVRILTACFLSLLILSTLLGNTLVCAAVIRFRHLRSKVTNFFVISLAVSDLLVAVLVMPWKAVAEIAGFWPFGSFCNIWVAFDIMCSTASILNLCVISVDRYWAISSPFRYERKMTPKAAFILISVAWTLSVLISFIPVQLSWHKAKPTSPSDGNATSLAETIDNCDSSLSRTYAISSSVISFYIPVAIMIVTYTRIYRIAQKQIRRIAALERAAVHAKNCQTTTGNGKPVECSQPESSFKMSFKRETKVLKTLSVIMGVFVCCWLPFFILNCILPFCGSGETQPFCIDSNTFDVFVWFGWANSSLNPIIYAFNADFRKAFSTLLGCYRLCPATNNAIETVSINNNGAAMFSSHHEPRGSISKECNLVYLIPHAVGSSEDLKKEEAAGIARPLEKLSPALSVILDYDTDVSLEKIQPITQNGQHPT

D(1A) dopamine receptor [2] = target: T1, D(1A) dopamine receptor; assay: Displacement of [3H]-SCH23390 from human D1 receptor expressed in HEK293 cells after 60 mins by microbeta counting based assay
Mu-type opioid receptor [3] = target: T2, Mu-type opioid receptor (Homo sapiens, UniProt P35372); assay: Displacement of [3H]-DAMGO from human MOR expressed in HEK293 cells after 60 mins by microbeta counting based assay
T2 sequence (P35372 whole entry): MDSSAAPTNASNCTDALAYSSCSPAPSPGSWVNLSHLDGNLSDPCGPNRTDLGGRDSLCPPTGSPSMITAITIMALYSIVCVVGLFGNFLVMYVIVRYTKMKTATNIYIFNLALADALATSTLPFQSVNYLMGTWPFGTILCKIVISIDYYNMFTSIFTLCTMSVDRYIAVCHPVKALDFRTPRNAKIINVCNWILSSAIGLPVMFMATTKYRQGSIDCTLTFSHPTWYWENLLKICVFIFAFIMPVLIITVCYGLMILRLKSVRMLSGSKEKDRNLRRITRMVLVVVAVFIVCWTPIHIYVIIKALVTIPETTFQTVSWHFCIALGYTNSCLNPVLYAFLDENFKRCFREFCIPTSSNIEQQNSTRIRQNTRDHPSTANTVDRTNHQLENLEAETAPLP

Mu-type opioid receptor [4] = target: T2, Mu-type opioid receptor; assay: Displacement of [3H]-DAMGO from human MOR expressed in HEK293 cells at 100 uM after 60 mins by microbeta counting based assay relative to control
D(2) dopamine receptor = D(2) dopamine receptor (Homo sapiens, UniProt P14416); assay: Displacement of [3H]-(R)-(+)-7-OH-DPAT from human D2L receptor expressed in HEK293 cells after 90 mins by microbeta counting based assay
Sequence of D(2) dopamine receptor (P14416 whole entry): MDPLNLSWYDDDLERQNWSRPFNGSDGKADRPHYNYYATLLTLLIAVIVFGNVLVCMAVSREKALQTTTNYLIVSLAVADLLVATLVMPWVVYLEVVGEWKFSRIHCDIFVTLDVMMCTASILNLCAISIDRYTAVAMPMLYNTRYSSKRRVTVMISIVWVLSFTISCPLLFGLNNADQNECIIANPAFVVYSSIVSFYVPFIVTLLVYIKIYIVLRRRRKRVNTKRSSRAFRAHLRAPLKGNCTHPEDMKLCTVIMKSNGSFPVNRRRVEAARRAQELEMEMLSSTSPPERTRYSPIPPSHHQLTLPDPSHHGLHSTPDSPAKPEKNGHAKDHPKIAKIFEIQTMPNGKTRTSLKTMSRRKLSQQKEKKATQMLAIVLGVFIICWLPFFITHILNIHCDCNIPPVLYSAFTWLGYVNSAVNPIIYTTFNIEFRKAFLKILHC

D(3) dopamine receptor = D(3) dopamine receptor (Homo sapiens, UniProt P35462); assay: Displacement of [3H]-(R)-(+)-7-OH-DPAT from human D3 receptor expressed in HEK293 cells after 90 mins by microbeta counting based assay
Sequence of D(3) dopamine receptor (P35462 whole entry): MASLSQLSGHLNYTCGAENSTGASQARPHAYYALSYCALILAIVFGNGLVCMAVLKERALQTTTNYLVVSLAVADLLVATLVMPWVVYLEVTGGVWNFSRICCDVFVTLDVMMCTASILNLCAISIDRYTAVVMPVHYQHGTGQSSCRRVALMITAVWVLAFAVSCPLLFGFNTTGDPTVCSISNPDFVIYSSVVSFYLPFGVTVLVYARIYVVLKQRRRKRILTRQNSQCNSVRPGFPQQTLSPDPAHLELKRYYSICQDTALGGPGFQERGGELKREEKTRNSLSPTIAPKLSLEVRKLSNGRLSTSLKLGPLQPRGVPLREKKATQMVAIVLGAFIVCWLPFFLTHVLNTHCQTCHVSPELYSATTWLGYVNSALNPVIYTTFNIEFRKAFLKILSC

Row | SMILES | inhibition (D(1A) dopamine receptor [1]) [%] | Ki (D(1A) dopamine receptor [2]) [µM] | Ki (Mu-type opioid receptor [3]) [µM] | inhibition (Mu-type opioid receptor [4]) [%] | Ki (D(2) dopamine receptor) [µM] | Ki (D(3) dopamine receptor) [µM]
1 | C[C@H]1CO[C@@H](c2ccc(N)nc2)CN1CC(O)CCNC(=O)c1cc2ccccc2[nH]1 (stereo partly specified) | < 50 | > 100 |  |  |  | 
2 | CCCN1CCO[C@@H]2c3cc(O)ccc3OC[C@H]21 | < 50 |  |  |  |  | 
3 | CCCN1CCO[C@H]2c3cc(O)ccc3OC[C@@H]21 | < 50 |  |  |  |  | 
4 | CCCN1CC(c2ccc(N)nc2)OC[C@@H]1C (mixture of isomers) | < 50 | > 100 | > 100 | < 50 |  | 
5 | C[C@H]1CO[C@@H](c2ccc(N)nc2)CN1CC[C@H]1CC[C@H](NC(=O)c2cc3ccccc3[nH]2)CC1 (relative stereo) | < 50 | > 100 | 21.9 |  |  | 
6 | O=C(NCCCCN1CCO[C@H]2c3cc(O)ccc3OC[C@@H]21)c1cc2ccccc2[nH]1 (relative stereo) | < 50 | > 100 | 12.4 |  | 5.88 | 5.54
7 | O=C(NCCCCN1CCO[C@@H]2c3cc(O)ccc3OC[C@@H]21)c1cc2ccccc2[nH]1 (relative stereo) | < 50 | > 100 | 12.3 |  | 9.42 | 13.8
